Test results published in patent US12582622B2, “Sodium oxybate to treat idiopathic hypersomnia” (priority 2020, dated 2026).

Key:
narcolepsy = conditions: in vivo; cited from earlier work
[1] = test system: subjects with Idiopathic Hypersomnia; assay: Safety of sodium oxybate (Xyrem) oral solution (Example 2); set-up: species or system human; conditions: in vivo
Text: (§1) This is a study of the efficacy and safety of sodium oxybate (Xyrem) oral solution in subjects with Idiopathic Hypersomnia. The study design is analogous to the study described in Example 1.
(§2) Subjects who complete the Double-blind Randomized Withdrawal Period will enter a 24-week Open-label Safety Extension Period as described in Example 1. A Safety Follow-up visit will occur 2 weeks after the Open-label Safety Extension Period (completion of study).

[2] = test system: subjects with Idiopathic Hypersomnia; assay: Study of the efficacy of sodium oxybate (Xyrem) oral solution: ESS, PGIc, IHSS (Example 2); format: in vivo, human; conditions: randomized withdrawal portion of the trial
Text: as §1
During the Open-label Treatment Titration and Optimization Period subjects will initiate sodium oxybate as either as a once or twice nightly dosing regimen at the discretion of the investigator. The dosing regimen of sodium oxybate may be adjusted as described in Example 1 until an optimally effective and tolerable dose regimen is established. The aim of the sodium oxybate dose titration and optimization is to maximize efficacy (reduction in IH symptoms, e.g., EDS, sleep inertia, and long sleep duration) while ensuring adequate nocturnal sleep and minimizing risk associated with safety and tolerability.
Subjects who have reached an optimized dosing regimen, and who have completed the Open label Treatment Titration and Optimization Period, will then enter the 2-week Stable Dose Period as described in Example 1.
Subjects who meet the randomization criteria at the end of the Stable Dose Period will be randomized to receive sodium oxybate at the stable dose and regimen or placebo at a volume and regimen equivalent to the sodium oxybate dose and regimen for 2 weeks. Randomization will be stratified by the subject's use of stimulant agent at baseline per the following baseline medication groups: 1) subjects not currently taking sodium oxybate but are taking a stimulant or alerting agent; or 2) subjects not currently taking sodium oxybate or a stimulant or alerting agent.
as §2

Structure (SMILES)	REM latency (narcolepsy)	signs and symptoms of narcolepsy (daytime sleepiness, cataplexy, sleep paralysis, hypnagogic hallucinations) (narcolepsy)	sleep apnea (narcolepsy)	total sleep time and REM sleep (narcolepsy)	overall safety profile [1]	ESS score during randomized withdrawal [2]	IHSS during randomized withdrawal [2]	change in PGIc scores during randomized withdrawal [2]
O=C(O)CCCO [GHB, gamma-hydroxybutyrate]	decreases	substantially reduces	reduces	increases				
O=C(O)CCCO [sodium oxybate]					consistent with that previously reported for sodium oxybate (Xyrem)	clinically meaningful maintenance of efficacy	clinically meaningful maintenance of efficacy	clinically meaningful maintenance of efficacy
